Laboratory results as given in patent publication US20260070929A1, “METHODS AND COMPOSITIONS FOR MODULATING KRAS(G12D)” (Ranok Therapeutics (Hangzhou) Co. LTD., priority 2022, published 2026).
Where two headings read alike, the source gives them in different places.

Key:
[1] = tested on: ASPC1 pancreatic adenocarcinoma cells [homozygous G12D]; test: Cancer cell line proliferation (CellTiter-Glo), ASPC1; type: cell-based; settings: 72 hr treatment, read-out: ASPC-1 CTG (EC50)
Procedure, shortened: (§1)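 Luminescent ATP read-out (CellTiter-Glo) after 72 hr drug exposure gives the EC50. Test compounds were prepared as 3-fold serial dilutions between 20 μM and 1.02 nM, with 0.5% DMSO final per well.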

[2] = tested on: SW1990 pancreatic adenocarcinoma cells [homozygous G12D]; test: Cancer cell line proliferation (CellTiter-Glo), SW1990; type: cell-based; settings: 72 hr treatment, read-out: SW1990 CTG (EC50)
Procedure, shortened: as §1

[3] = tested on: AGS gastric carcinoma cells [heterozygous G12D]; test: Cancer cell line proliferation (CellTiter-Glo), AGS; type: cell-based; settings: 72 hr treatment, read-out: AGS CTG (EC50)
Procedure, shortened: as §1

[4] = tested on: A-427 lung carcinoma cells [heterozygous G12D]; test: Cancer cell line proliferation (CellTiter-Glo), A-427; type: cell-based; settings: A-427 cells, 72 hr treatment, read-out: A427 CTG (EC50)
Procedure, shortened: as §1

KRAS(G12D)/SOS1 = molecular target: T1, KRAS(G12D)/SOS1 (Homo sapiens, UniProt P01116, G12D); test: KRAS(G12D)/SOS1 homogeneous time-resolved fluorescence (HTRF) assay; type: binding; settings: absence of GTP; 4° C., 3 hr
T1 construct: purchased Cisbio 63ADK000CB17PEH
T1 sequence (P01116 1-188 isoform P01116-2 G12D): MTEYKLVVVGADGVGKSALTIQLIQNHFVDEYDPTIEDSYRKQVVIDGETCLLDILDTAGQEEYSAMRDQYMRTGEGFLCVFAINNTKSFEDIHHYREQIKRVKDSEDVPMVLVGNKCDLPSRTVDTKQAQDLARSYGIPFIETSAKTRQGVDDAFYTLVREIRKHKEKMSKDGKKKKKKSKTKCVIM
Procedure, shortened: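 HTRF kit assay of compound-blocked KRAS(G12D)–SOS1 interaction, run without GTP. Compounds were tested as 3-fold dilutions from 20 µM to 1.02 nM and incubated with the reaction components for 3 hr at 4 °C, sealed. IC50 was taken as the concentration giving 50% of maximal inhibition.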

Structure (SMILES)	EC50 [1] [nM]	EC50 [2] [nM]	EC50 [3] [nM]	EC50 [4] [nM]	IC50 (KRAS(G12D)/SOS1) [nM]	EC50 ([1]; Homo sapiens, ASPC1, 72 h) [nM]	EC50 ([2]; Homo sapiens) [nM]	EC50 ([3]; Homo sapiens) [nM]	EC50 ([4]; Homo sapiens) [nM]
C#Cc1cccc2cc(O)cc(-c3ncc4c(N5CC6CCC(C5)N6)nc(OCC5(CN6CCN(CC7CCN(Cc8ccc9c(c8)CN(C(=O)c8cc(C(C)C)c(O)cc8O)C9)CC7)CC6)CC5)nc4c3F)c12 [Compound 125]	100 to 1000	< 100	< 100	100 to 1000	< 100	–	–	–	–
C#Cc1cccc2cc(O)cc(-c3ncc4c(N5CC6CCC(C5)N6)nc(OCC5(CN6CCN(CC7CCN(Cc8ccc(-n9c(C(=O)NC(C)C(F)(F)F)nnc9-c9cc(C(C)C)c(O)cc9O)cc8)CC7)CC6)CC5)nc4c3F)c12 (stereo not drawn) [Compound 126]	–	–	–	–	< 100	< 100	< 100	< 100	< 100
C#Cc1cccc2cc(O)cc(-c3ncc4c(N5CC6CCC(C5)N6)nc(OCC5(CN6CCN(CC7CCN(Cc8ccc(-n9c(C(=O)NCC(F)(F)F)nnc9-c9cc(C(C)C)c(O)cc9O)cc8)CC7)CC6)CC5)nc4c3F)c12 [Compound 127]	–	–	–	–	< 100	< 100	< 100	< 100	< 100
CC(C)c1cc(C(=O)N2Cc3ccc(CN4CCC(CN5CCN(CC6(COc7nc(N8CC9CCC(C8)N9)c8cnc(-c9cccc%10ccccc9%10)c(F)c8n7)CC6)CC5)CC4)cc3C2)c(O)cc1O [Compound 128]	–	–	–	–	< 100	100 to 1000	100 to 1000	100 to 1000	100 to 1000
C#Cc1cccc2cc(O)cc(-c3ncc4c(N5CC6CNC(C6)C5)nc(OCC5(CN6CCN(CC7CCN(Cc8ccc9c(c8)CN(C(=O)c8cc(C(C)C)c(O)cc8O)C9)CC7)CC6)CC5)nc4c3F)c12 (stereo not drawn) [Compound 129]	–	–	–	–	< 100	> 1000	100 to 1000	100 to 1000	100 to 1000
C#Cc1cccc2cc(O)cc(-c3ncc4c(N5CC6CCC(C5)N6)nc(OCC5(CN6CCN(Cc7ccc(-n8c(C(=O)NCC(F)(F)F)nnc8-c8cc(C(C)C)c(O)cc8O)cc7)CC6)CC5)nc4c3F)c12 [Compound 130]	–	–	–	–	< 100	100 to 1000	< 100	< 100	< 100
C#Cc1cccc2cc(O)cc(-c3ncc4c(N5CC6CCC(C5)N6)nc(OCC5(CN6CCN(Cc7ccc8c(c7)CN(C(=O)c7cc(C(C)C)c(O)cc7O)C8)CC6)CC5)nc4c3F)c12 [Compound 131]	–	–	–	–	< 100	100 to 1000	< 100	< 100	100 to 1000
C#Cc1cccc2cc(O)cc(-c3ncc4c(N5CC6CCC(C5)N6)nc(OCC5(CN6CCC(OC7CCN(Cc8ccc(-n9c(C(=O)NCC(F)(F)F)nnc9-c9cc(C(C)C)c(O)cc9O)cc8)CC7)CC6)CC5)nc4c3F)c12 [Compound 132]	–	–	–	–	< 100	< 100	< 100	< 100	< 100
C#Cc1cccc2cc(O)cc(-c3ncc4c(N5CC6CCC(C5)N6C(=O)C(F)(F)F)nc(OCC5(CN6CCN(CC7CCN(Cc8ccc9c(c8)CN(C(=O)c8cc(C(C)C)c(O)cc8O)C9)CC7)CC6)CC5)nc4c3F)c12 [Compound 142]	–	–	–	–	100 to 1000	100 to 1000	100 to 1000	100 to 1000	100 to 1000
C#Cc1cccc2cc(O)cc(-c3ncc4c(N5CC6CCC(C5)N6C(=O)C(F)(F)F)nc(OCC5(CN6CCN(CC7CCN(Cc8ccc(-n9c(C(=O)NCC(F)(F)F)nnc9-c9cc(C(C)C)c(O)cc9O)cc8)CC7)CC6)CC5)nc4c3F)c12 [Compound 143]	–	–	–	–	100 to 1000	100 to 1000	< 100	< 100	< 100
C#Cc1cccc2cc(O)cc(-c3ncc4c(N5CC6CCC(C5)N6)nc(OCC5(CN6CCN(CC7CCN(Cc8ccc9c(c8)CN(C(=O)c8cc(C(C)C)c(OC)cc8O)C9)CC7)CC6)CC5)nc4c3F)c12 [Compound 144]	–	–	–	–	< 100	100 to 1000	100 to 1000	< 100	100 to 1000
C#Cc1c(F)ccc2cc(O)cc(-c3ncc4c(N5CC6CCC(C5)N6)nc(OCC5(CN6CCN(CC7CCN(c8ccc(-n9c(C(=O)NCC)nnc9-c9cc(C(C)C)c(O)cc9O)cc8)CC7)CC6)CC5)nc4c3F)c12 [Compound 145]	–	–	–	–	< 100	100 to 1000	< 100	< 100	< 100
C#Cc1c(F)ccc2cc(O)cc(-c3ncc4c(N5CC6CCC(C5)N6C(=O)C(F)(F)F)nc(OCC5(CN6CCN(CC7CCN(Cc8ccc(-n9c(C(=O)NC(C)C(F)(F)F)nnc9-c9cc(C(C)C)c(O)cc9O)cc8)CC7)CC6)CC5)nc4c3F)c12 (stereo not drawn) [Compound 146]	–	–	–	–	100 to 1000	100 to 1000	< 100	< 100	< 100
C#Cc1c(F)ccc2cc(O)cc(-c3ncc4c(N5CC6CCC(C5)N6C(=O)C(F)(F)F)nc(OCC5(CN6CCN(CC7CCN(Cc8ccc(-n9c(C(=O)NCC)nnc9-c9cc(C(C)C)c(O)cc9O)cc8)CC7)CC6)CC5)nc4c3F)c12 [Compound 147]	–	–	–	–	< 100	100 to 1000	< 100	< 100	< 100
C#Cc1c(F)ccc2cc(O)cc(-c3ncc4c(N5CC6CCC(C5)N6)nc(OCC5(CN6CCN(CC7CCN(Cc8ccc(-n9c(C(=O)NCC)nnc9-c9cc(C(C)C)c(O)cc9O)cc8)CC7)CC6)CC5)nc4c3F)c12 [Compound 148]	–	–	–	–	< 100	< 100	< 100	< 100	< 100
C#Cc1c(F)ccc2cc(O)cc(-c3ncc4c(N5CC6CCC(C5)N6)nc(OCC5(CN6CCN(CC7CCN(Cc8ccc(-n9c(C(=O)NCC)nnc9-c9cc(CC)c(O)cc9O)cc8)CC7)CC6)CC5)nc4c3F)c12 [Compound 149]	–	–	–	–	< 100	< 100	< 100	< 100	< 100
C#Cc1cccc2cc(O)cc(-c3ncc4c(N5CC6CCC(C5)N6C(C)=O)nc(OCC5(CN6CCN(CC7CCN(Cc8ccc(-n9c(C(=O)NC(C)C(F)(F)F)nnc9-c9cc(C(C)C)c(O)cc9O)cc8)CC7)CC6)CC5)nc4c3F)c12 (stereo not drawn) [Compound 150]	–	–	–	–	100 to 1000	100 to 1000	< 100	< 100	< 100
C#Cc1cccc2cc(O)cc(-c3ncc4c(N5CC6CCC(C5)N6C(C)=O)nc(OCC5(CN6CCN(CC7CCN(Cc8ccc9c(c8)CN(C(=O)c8cc(C(C)C)c(O)cc8O)C9)CC7)CC6)CC5)nc4c3F)c12 [Compound 151]	–	–	–	–	< 100	100 to 1000	100 to 1000	100 to 1000	100 to 1000
C#Cc1cccc2cc(O)cc(-c3ncc4c(N5CC6CCC(C5)N6)nc(OCC5(CN6CCN(CC7CCN(Cc8ccc9c(c8)CN(C(=O)c8cc(C(C)C)c(O)cc8OC)C9)CC7)CC6)CC5)nc4c3F)c12 [Compound 152]	–	–	–	–	< 100	100 to 1000	< 100	< 100	100 to 1000
C#Cc1c(F)ccc2cc(O)cc(-c3ncc4c(N5CC6CCC(C5)N6)nc(OCC5(CN6CCN(CC7CCN(Cc8ccc(-n9c(C(=O)NC(C)C(F)(F)F)nnc9-c9cc(C(C)C)c(O)cc9O)cc8)CC7)CC6)CC5)nc4c3F)c12 (stereo not drawn) [Compound 153]	–	–	–	–	< 100	< 100	< 100	< 100	< 100
C#Cc1c(F)ccc2cc(O)cc(-c3ncc4c(N5CC6CCC(C5)N6)nc(OCC5(CN6CCN(CC7CCN(Cc8ccc(-n9c(C(=O)NCC(F)(F)F)nnc9-c9cc(C(C)C)c(O)cc9O)cc8)CC7)CC6)CC5)nc4c3F)c12 [Compound 154]	–	–	–	–	< 100	< 100	< 100	< 100	< 100
